Results published in PubChem BioAssay (NCI).
Several values for one entry are separate records, joined by “and”; a condition that tells them apart may be missing. Equal values may be shown once.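 All cell lines were grown in 96-well plates and treated with compound for 48 hours. Abbreviation: GI50, concentration required for 50% inhibition of growth. Definition used: TGI = concentration required for complete inhibition of growth.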

What was measured:
Assay in all cases: DTP human tumour cell line panel, 48 h
OVCAR-4 ovarian = system: OVCAR-4 ovarian
NCI-H23 lung = system: NCI-H23 lung
NCI-H226 lung = system: NCI-H226 lung
MDA-MB-231 breast = system: MDA-MB-231 breast
UO-31 renal = system: UO-31 renal
MDA-MB-435 = system: MDA-MB-435
OVCAR-3 ovarian = system: OVCAR-3 ovarian
K-562 leukemia = system: K-562 leukemia
EKVX NSCLC = system: EKVX NSCLC
HS 578T breast = system: HS 578T breast

Row | SMILES | TGI (OVCAR-4 ovarian) | TGI (NCI-H23 lung) | TGI (NCI-H226 lung) | TGI (MDA-MB-231 breast) | TGI (UO-31 renal) | TGI (MDA-MB-435) | TGI (OVCAR-3 ovarian) | TGI (K-562 leukemia) | TGI (EKVX NSCLC) | TGI (HS 578T breast) | GI50 (OVCAR-3 ovarian)
1 | O=C1CCC2(CC1CC(Sc1ccccc1)Sc1ccccc1)OCCO2 (stereo unspecified) | > 100 µM | > 100 µM | > 100 µM | > 100 µM | > 100 µM | > 100 µM | > 100 µM | > 100 µM | > 100 µM | 88.1 µM | 
2 | CC(=O)OC(/C=C/c1ccccc1)P1(=O)N(CC(C)(C)C)[C@@H]2CCCC[C@H]2N1CC(C)(C)C (stereo partly specified) | 20.5 µM and 19.7 µM | 20.3 µM and 17.1 µM | 21.8 µM and 25.7 µM | 24.4 µM and 20.4 µM | 19.6 µM and 17 µM | 28.8 µM and 22.1 µM | 25.4 µM and 17.1 µM | 21.7 µM and 20.6 µM | 19.1 µM and 18.9 µM | 24.5 µM and 27.1 µM | 8.41 µM and 3.47 µM
3 | COc1ccc2c(CCN)c(C(=O)O)[nH]c2c1 | > 100 µM | > 100 µM | > 100 µM | > 100 µM | > 100 µM | > 100 µM | > 100 µM | > 100 µM | > 100 µM | > 100 µM | 
4 | COC(=O)[C@]1(c2cc3ccccc3n2S(=O)(=O)c2ccccc2)CC2CN(C(C)=O)C1CC2=O (stereo partly specified) | 10.7 µM | 9.38 µM | 10.4 µM | 7.4 µM | 3.45 µM | 6.32 µM | 6.03 µM | 12.1 µM | 6.17 µM | > 43.8 µM | 
5 | O=C(O)c1cc2ccccc2c(N=Nc2ccc(S(=O)(=O)Nc3nccs3)cc2)c1O | > 100 µM | > 100 µM | > 100 µM | > 100 µM | > 100 µM | > 100 µM | > 100 µM | > 100 µM | > 100 µM | > 100 µM | 
6 | CCCCC(=O)NS(=NC(=O)c1ccccc1)C(Cl)(Cl)Cl (stereo unspecified) | > 100 µM | > 100 µM | > 100 µM | > 100 µM | > 100 µM | > 100 µM | > 100 µM | > 100 µM | > 100 µM | > 100 µM | 
7 | COc1ccc2nc3ccc(OC)cc3c(SCCO)c2c1 | > 100 µM | > 100 µM | > 100 µM | > 100 µM | > 100 µM | > 100 µM | > 100 µM | > 100 µM | > 100 µM | > 100 µM | 
8 | COC(=O)C1Cc2c(OC)ccc(OC)c2CC(C(=O)OC)C1=O (stereo unspecified) | > 100 µM | 85.3 µM | > 100 µM | > 100 µM | > 100 µM | > 100 µM | > 100 µM | > 100 µM | > 100 µM | > 100 µM | 
